MIC data for 33 molecules are collected here from ChEMBL document CHEMBL1155480, “Selective one-pot multicomponent synthesis and anti-tubercular evaluation of 5-(aryl/cyclohexylsulfanyl)-2-alkoxy-4,6-diarylnicotinonitriles” (2010).

Values after ≈ are worked out from the molar mass of the structure shown.

In this experiment the test system is Mycobacterium tuberculosis. Put plainly: Antimycobacterial activity against Mycobacterium tuberculosis H37Rv by agar dilution method. Format: functional.
`CCOc1nc(-c2ccc(Cl)cc2)c(Sc2ccc(C)cc2)c(-c2ccc(N(C)C)cc2)c1C#N` showed a minimum inhibitory concentration (MIC) above 50 µM.

As for `NNC(=O)c1ccncc1` [ISONIAZID], 0.4 µM (≈ 0.0549 µg/mL) was the least that counted as inhibitory (MIC).

For `NC(=O)c1cnccn1` [PYRAZINAMIDE], inhibition of growth (MIC) required 50.8 µM (≈ 6.25 µg/mL).

Molecule `CCOc1nc(-c2ccc(Cl)cc2)c(Sc2ccc(C)cc2)c(-c2ccc(OC)cc2)c1C#N` registered an MIC of 51.3 µM (≈ 25 µg/mL).

Molecule `CCOc1nc(-c2ccc(Br)cc2)c(Sc2ccc(Cl)cc2)c(-c2ccc(N(C)C)cc2)c1C#N` displayed an MIC of 5.6 µM (≈ 3.16 µg/mL). Compared with the last molecule, the MIC is about 9.2-fold lower.

Take `CCOc1nc(-c2ccc(Cl)cc2)c(SC2CCCCC2)c(-c2ccccc2)c1C#N`: it took 27.8 µM (≈ 12.5 µg/mL) to inhibit growth (MIC).

Turning to `CCOc1nc(-c2ccc(Cl)cc2)c(SC2CCCCC2)c(-c2ccc(C)cc2)c1C#N`, the MIC was 27 µM (≈ 12.5 µg/mL). The MIC values of the last two molecules are within 1.5-fold of each other.

As to `COc1nc(-c2ccc(Cl)cc2)c(SC2CCCCC2)c(-c2ccc(N(C)C)cc2)c1C#N`, inhibition of growth (MIC) required 13.1 µM (≈ 6.26 µg/mL).

Consider `CCOc1nc(-c2ccc(OC)cc2)c(Sc2ccc(Cl)cc2)c(-c2ccc(N(C)C)cc2)c1C#N`, for which the MIC is 24.2 µM (≈ 12.5 µg/mL).

`CCOc1nc(-c2ccc([N+](=O)[O-])cc2)c(SC2CCCCC2)c(-c2ccc(N(C)C)cc2)c1C#N` had an MIC of 12.5 µM (≈ 6.28 µg/mL).

For the molecule `CCOc1nc(-c2ccccc2)c(SC2CCCCC2)c(-c2ccccc2)c1C#N`, the minimum inhibitory concentration (MIC) was 25 µM (≈ 10.4 µg/mL).

In the case of `COc1nc(-c2ccc(Cl)cc2)c(Sc2ccc(Cl)cc2)c(-c2ccc(Cl)cc2)c1C#N`, the MIC is 3.1 µM (≈ 1.54 µg/mL).

The molecule `COc1nc(-c2ccccc2)c(Sc2ccc(Cl)cc2)c(-c2ccc(Cl)cc2)c1C#N` gave an MIC of 27 µM (≈ 12.5 µg/mL).

For the molecule `CCOc1nc(-c2ccc(Cl)cc2)c(Sc2ccc(Cl)cc2)c(-c2ccccc2)c1C#N`, inhibition of growth (MIC) required 13.1 µM (≈ 6.25 µg/mL).

As to `COc1nc(-c2ccc(Cl)cc2)c(SC2CCCCC2)c(-c2ccc(C)cc2)c1C#N`, the minimal inhibitory concentration (MIC) is 28 µM (≈ 12.6 µg/mL).

Regarding `CCOc1nc(-c2ccc(Cl)cc2)c(Sc2ccccc2)c(-c2ccc(N(C)C)cc2)c1C#N`, the MIC is above 51.4 µM.

For the molecule `CCOc1nc(-c2ccc(Cl)cc2)c(Sc2ccc(C)cc2)c(-c2ccccc2)c1C#N`, the MIC is 54.8 µM (≈ 25 µg/mL).

`COc1ccc(-c2c(C#N)c(OC)nc(-c3ccc(Cl)cc3)c2Sc2ccc(Cl)cc2)cc1` showed an MIC of 25.4 µM (≈ 12.5 µg/mL).

Turning to `CCOc1nc(-c2ccc(Cl)cc2)c(SC2CCCCC2)c(-c2ccc(N(C)C)cc2)c1C#N`, the MIC stood at 25.4 µM (≈ 12.5 µg/mL). In other words, the double-digit micromolar range.

Take `CCOc1nc(-c2ccc([N+](=O)[O-])cc2)c(SC2CCCCC2)c(-c2ccccc2)c1C#N`: the MIC stood at 6.8 µM (≈ 3.13 µg/mL).

As for `COc1nc(-c2ccccc2)c(Sc2ccc(Cl)cc2)c(-c2ccc(N(C)C)cc2)c1C#N`, the MIC was found to be 26.5 µM (≈ 12.5 µg/mL). Against the preceding molecule, the MIC is about 3.9-fold higher.

`CCOc1nc(-c2ccc(Cl)cc2)c(SC2CCCCC2)c(-c2ccc(Cl)cc2)c1C#N` gave a minimum inhibitory concentration (MIC) of 6.5 µM (≈ 3.14 µg/mL).

`COc1nc(-c2ccc(Cl)cc2)c(SC2CCCCC2)c(-c2ccccc2)c1C#N` yielded an MIC of 57.6 µM (≈ 25.1 µg/mL).

In turn, `CCOc1nc(-c2ccc(Cl)cc2)c(Sc2ccccc2)c(-c2ccc(Cl)cc2)c1C#N` had an MIC of 26.2 µM (≈ 12.5 µg/mL).

In the case of `CCOc1nc(-c2ccc(C)cc2)c(SC2CCCCC2)c(-c2ccc(N(C)C)cc2)c1C#N`, the MIC came out at 26.5 µM (≈ 12.5 µg/mL). The MIC values of the last two molecules are within 1.5-fold of each other.

Turning to `COc1nc(-c2ccc(Cl)cc2)c(Sc2ccc(Cl)cc2)c(-c2ccc(N(C)C)cc2)c1C#N`, it took 12.4 µM (≈ 6.28 µg/mL) to inhibit growth (MIC).

Turning to `COc1nc(-c2ccc(Cl)cc2)c(SC2CCCCC2)c(-c2ccc(Cl)cc2)c1C#N`, 13.3 µM (≈ 6.24 µg/mL) was the least that counted as inhibitory (MIC).

`COc1ccc(-c2c(C#N)c(OC)nc(-c3ccc(Cl)cc3)c2SC2CCCCC2)cc1` returned an MIC of 26.9 µM (≈ 12.5 µg/mL).

Molecule `COc1nc(-c2ccc(Cl)cc2)c(Sc2ccc(Cl)cc2)c(-c2ccccc2)c1C#N` had an MIC of 27.1 µM (≈ 12.6 µg/mL).

`COc1nc(-c2ccc(Cl)cc2)c(SC2CCCCC2)c(-c2ccccc2Cl)c1C#N` had a minimal inhibitory concentration (MIC) of 13.3 µM (≈ 6.24 µg/mL).

On to `CCOc1nc(-c2ccc(Cl)cc2)c(Sc2ccc(C)cc2)c(-c2ccc(Cl)cc2)c1C#N`, for which the lowest concentration to inhibit growth (MIC) was 25.5 µM (≈ 12.5 µg/mL).

Regarding `CC[C@@H](CO)NCCN[C@@H](CC)CO` [ETHAMBUTOL], the minimum inhibitory concentration (MIC) was 7.6 µM (≈ 1.55 µg/mL).

For `CCOc1nc(-c2ccc(Cl)cc2)c(Sc2ccc(OC)cc2)c(-c2ccc(N(C)C)cc2)c1C#N`, the MIC turned out to be 48.5 µM (≈ 25 µg/mL).
